Measured values published in patent US7375083B2, “Pharmaceutical compositions for prevention of overdose or abuse” (Shire LLC, priority 2003, dated 2008).

Tests used:
Male Sprague-Dawley rats = assay: Locomotor activity after intranasal administration with and without CMC; format: in vivo; settings: 1.0 mg/kg
[1] = target: T1, human recombinant dopamine transport binding sites (Homo sapiens, UniProt Q01959); assay: Radioligand binding, dopamine transporter; settings: 10^−9 to 10^−5 M
T1 construct: purchased Novascreen, Hanover, Md
T1 sequence (Q01959 whole entry): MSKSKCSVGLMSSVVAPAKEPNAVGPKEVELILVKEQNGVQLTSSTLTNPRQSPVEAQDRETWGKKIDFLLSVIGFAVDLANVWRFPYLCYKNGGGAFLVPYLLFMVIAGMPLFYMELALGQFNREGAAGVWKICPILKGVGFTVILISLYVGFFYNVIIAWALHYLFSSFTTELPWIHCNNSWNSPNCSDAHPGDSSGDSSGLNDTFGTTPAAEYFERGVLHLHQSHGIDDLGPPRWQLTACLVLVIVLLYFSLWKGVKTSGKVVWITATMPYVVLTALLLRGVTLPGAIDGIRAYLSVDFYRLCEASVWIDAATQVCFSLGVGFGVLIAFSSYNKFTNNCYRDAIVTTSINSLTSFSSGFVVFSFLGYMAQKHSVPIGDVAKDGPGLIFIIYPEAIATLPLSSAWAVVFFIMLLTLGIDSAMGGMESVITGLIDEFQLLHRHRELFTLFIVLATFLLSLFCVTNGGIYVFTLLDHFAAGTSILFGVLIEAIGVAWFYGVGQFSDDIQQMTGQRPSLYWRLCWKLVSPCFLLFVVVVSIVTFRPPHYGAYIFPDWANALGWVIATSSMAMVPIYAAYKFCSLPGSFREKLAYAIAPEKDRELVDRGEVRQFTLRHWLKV

[2] = target: T2, human recombinant norepinephrine transport binding sites (Homo sapiens, UniProt P23975); assay: Radioligand binding, norepinephrine transporter; settings: 10^−9 to 10^−5 M
T2 construct: purchased Novascreen, Hanover, Md
T2 sequence (P23975 whole entry): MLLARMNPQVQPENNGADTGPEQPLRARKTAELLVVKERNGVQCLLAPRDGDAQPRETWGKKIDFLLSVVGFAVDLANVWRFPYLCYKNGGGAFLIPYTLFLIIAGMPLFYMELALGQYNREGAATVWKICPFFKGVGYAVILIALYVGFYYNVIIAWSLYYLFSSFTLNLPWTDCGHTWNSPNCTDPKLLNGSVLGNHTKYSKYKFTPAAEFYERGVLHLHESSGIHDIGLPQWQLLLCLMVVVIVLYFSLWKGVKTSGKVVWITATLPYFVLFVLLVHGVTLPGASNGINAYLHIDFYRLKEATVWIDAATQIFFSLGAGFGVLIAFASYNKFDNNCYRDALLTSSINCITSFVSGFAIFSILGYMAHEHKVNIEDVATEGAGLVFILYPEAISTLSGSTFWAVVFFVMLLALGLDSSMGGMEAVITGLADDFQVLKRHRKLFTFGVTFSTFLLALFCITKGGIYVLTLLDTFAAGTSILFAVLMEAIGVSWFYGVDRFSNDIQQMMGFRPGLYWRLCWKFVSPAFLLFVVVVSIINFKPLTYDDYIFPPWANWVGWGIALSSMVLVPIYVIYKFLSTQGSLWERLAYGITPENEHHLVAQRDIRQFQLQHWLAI

[3] = Intranasal bioavailability in rats, LC/MS/MS; settings: male, Sprague-Dawley, rat, plasma, inhaled or intranasal, 3 mg/kg
[4] = Serum and brain tissue levels after oral administration, LC/MS/MS; settings: rat, 5 mg/kg d-amphetamine base
Anesthetized Dog = assay: Cardiovascular effects after intravenous bolus injection in anesthetized dogs

SMILES: CC(Cc1ccccc1)NC(=O)C(N)CCCCN [L-lysine-d-amphetamine, 2,6-diaminohexanoic acid-(1-methyl-2-phenylethyl)-amide]
- Percent d-amphetamine (Male Sprague-Dawley rats; activity above baseline relative to d-amphetamine): 35%
- Increase in activity over baseline compared to d-amphetamine dosed animals (Male Sprague-Dawley rats; rat, with CMC): 9%
- Specific binding [1]: did not bind
- Specific binding [2]: did not bind
- AUC(0-inf) [3]: 9140 ng·h/mL
- AUC(0-t) [3]: 2580 ng·h/mL
- Cmax [3]: 3350 ng/mL
- Tmax [3]: 15 min
- Intact conjugate in serum [4]: present in appreciable amounts in serum
- DAP % Change from respective Time 0 (Anesthetized Dog; 0.5 mg/kg, TIME 0): 0%
- DAP - diastolic arterial pressure (Anesthetized Dog; 0.5 mg/kg, TIME 0): 51 mmHg
- LVP % Change from respective Time 0 (Anesthetized Dog; 0.5 mg/kg, TIME 0): 0%
- LVP - left ventricular pressure (Anesthetized Dog; 0.5 mg/kg, TIME 0): 86 mmHg
- MAP % Change from respective Time 0 (Anesthetized Dog; 0.5 mg/kg, TIME 0): 0%
- MAP - mean arterial pressure (Anesthetized Dog; 0.5 mg/kg, TIME 0): 64 mmHg
- SAP % Change from respective Time 0 (Anesthetized Dog; 0.5 mg/kg, TIME 0): 0%
- SAP - systolic arterial pressure (Anesthetized Dog; 0.5 mg/kg, TIME 0): 84 mmHg
- DAP % Change from respective Time 0 (Anesthetized Dog; 0.5 mg/kg, TIME 5): 3%
- DAP - diastolic arterial pressure (Anesthetized Dog; 0.5 mg/kg, TIME 5): 52 mmHg
- LVP % Change from respective Time 0 (Anesthetized Dog; 0.5 mg/kg, TIME 5): 2%
- LVP - left ventricular pressure (Anesthetized Dog; 0.5 mg/kg, TIME 5): 87 mmHg
- MAP % Change from respective Time 0 (Anesthetized Dog; 0.5 mg/kg, TIME 5): 3%
- MAP - mean arterial pressure (Anesthetized Dog; 0.5 mg/kg, TIME 5): 66 mmHg
- SAP % Change from respective Time 0 (Anesthetized Dog; 0.5 mg/kg, TIME 5): 4%
- SAP - systolic arterial pressure (Anesthetized Dog; 0.5 mg/kg, TIME 5): 87 mmHg
- DAP % Change from respective Time 0 (Anesthetized Dog; 0.5 mg/kg, TIME 15): 1%
- DAP - diastolic arterial pressure (Anesthetized Dog; 0.5 mg/kg, TIME 15): 51 mmHg
- LVP % Change from respective Time 0 (Anesthetized Dog; 0.5 mg/kg, TIME 15): 11%
- LVP - left ventricular pressure (Anesthetized Dog; 0.5 mg/kg, TIME 15): 95 mmHg
- MAP % Change from respective Time 0 (Anesthetized Dog; 0.5 mg/kg, TIME 15): 5%
- MAP - mean arterial pressure (Anesthetized Dog; 0.5 mg/kg, TIME 15): 67 mmHg
- SAP % Change from respective Time 0 (Anesthetized Dog; 0.5 mg/kg, TIME 15): 11%
- SAP - systolic arterial pressure (Anesthetized Dog; 0.5 mg/kg, TIME 15): 93 mmHg
- DAP % Change from respective Time 0 (Anesthetized Dog; 0.5 mg/kg, TIME 25): 8%
- DAP - diastolic arterial pressure (Anesthetized Dog; 0.5 mg/kg, TIME 25): 55 mmHg
- LVP % Change from respective Time 0 (Anesthetized Dog; 0.5 mg/kg, TIME 25): 22%
- LVP - left ventricular pressure (Anesthetized Dog; 0.5 mg/kg, TIME 25): 105 mmHg
- MAP % Change from respective Time 0 (Anesthetized Dog; 0.5 mg/kg, TIME 25): 15%
- MAP - mean arterial pressure (Anesthetized Dog; 0.5 mg/kg, TIME 25): 73 mmHg
- SAP % Change from respective Time 0 (Anesthetized Dog; 0.5 mg/kg, TIME 25): 25%
- DAP % Change from respective Time 0 (Anesthetized Dog; 0.5 mg/kg, TIME 30): 14%
- DAP - diastolic arterial pressure (Anesthetized Dog; 0.5 mg/kg, TIME 30): 58 mmHg
- LVP % Change from respective Time 0 (Anesthetized Dog; 0.5 mg/kg, TIME 30): 26%
- MAP % Change from respective Time 0 (Anesthetized Dog; 0.5 mg/kg, TIME 30): 21%
- MAP - mean arterial pressure (Anesthetized Dog; 0.5 mg/kg, TIME 30): 77 mmHg
- SAP % Change from respective Time 0 (Anesthetized Dog; 0.5 mg/kg, TIME 30): 28%
- DAP % Change from respective Time 0 (Anesthetized Dog; 1.0 mg/kg, TIME 0): 0%
- DAP - diastolic arterial pressure (Anesthetized Dog; 1.0 mg/kg, TIME 0): 55 mmHg
- LVP % Change from respective Time 0 (Anesthetized Dog; 1.0 mg/kg, TIME 0): 0%
- MAP % Change from respective Time 0 (Anesthetized Dog; 1.0 mg/kg, TIME 0): 0%
- MAP - mean arterial pressure (Anesthetized Dog; 1.0 mg/kg, TIME 0): 74 mmHg
- SAP % Change from respective Time 0 (Anesthetized Dog; 1.0 mg/kg, TIME 0): 0%
- SAP - systolic arterial pressure (Anesthetized Dog; 1.0 mg/kg, TIME 0): 105 mmHg
- DAP % Change from respective Time 0 (Anesthetized Dog; 1.0 mg/kg, TIME 5): 15%
- DAP - diastolic arterial pressure (Anesthetized Dog; 1.0 mg/kg, TIME 5): 63 mmHg
- LVP % Change from respective Time 0 (Anesthetized Dog; 1.0 mg/kg, TIME 5): 11%
- LVP - left ventricular pressure (Anesthetized Dog; 1.0 mg/kg, TIME 5): 120 mmHg
- MAP % Change from respective Time 0 (Anesthetized Dog; 1.0 mg/kg, TIME 5): 15%
- MAP - mean arterial pressure (Anesthetized Dog; 1.0 mg/kg, TIME 5): 85 mmHg
- SAP % Change from respective Time 0 (Anesthetized Dog; 1.0 mg/kg, TIME 5): 15%
- DAP % Change from respective Time 0 (Anesthetized Dog; 1.0 mg/kg, TIME 15): 33%
- DAP - diastolic arterial pressure (Anesthetized Dog; 1.0 mg/kg, TIME 15): 73 mmHg
- LVP % Change from respective Time 0 (Anesthetized Dog; 1.0 mg/kg, TIME 15): 29%
- LVP - left ventricular pressure (Anesthetized Dog; 1.0 mg/kg, TIME 15): 140 mmHg
- MAP % Change from respective Time 0 (Anesthetized Dog; 1.0 mg/kg, TIME 15): 35%
- MAP - mean arterial pressure (Anesthetized Dog; 1.0 mg/kg, TIME 15): 100 mmHg
- SAP % Change from respective Time 0 (Anesthetized Dog; 1.0 mg/kg, TIME 15): 35%
- DAP % Change from respective Time 0 (Anesthetized Dog; 1.0 mg/kg, TIME 25): 75%
- DAP - diastolic arterial pressure (Anesthetized Dog; 1.0 mg/kg, TIME 25): 97 mmHg
- LVP % Change from respective Time 0 (Anesthetized Dog; 1.0 mg/kg, TIME 25): 50%
- MAP % Change from respective Time 0 (Anesthetized Dog; 1.0 mg/kg, TIME 25): 68%
- SAP % Change from respective Time 0 (Anesthetized Dog; 1.0 mg/kg, TIME 25): 55%
- DAP % Change from respective Time 0 (Anesthetized Dog; 1.0 mg/kg, TIME 30): 32%
- DAP - diastolic arterial pressure (Anesthetized Dog; 1.0 mg/kg, TIME 30): 73 mmHg
- LVP % Change from respective Time 0 (Anesthetized Dog; 1.0 mg/kg, TIME 30): 33%
- MAP % Change from respective Time 0 (Anesthetized Dog; 1.0 mg/kg, TIME 30): 32%
- MAP - mean arterial pressure (Anesthetized Dog; 1.0 mg/kg, TIME 30): 98 mmHg
- SAP % Change from respective Time 0 (Anesthetized Dog; 1.0 mg/kg, TIME 30): 28%
- DAP % Change from respective Time 0 (Anesthetized Dog; 5.0 mg/kg, TIME 0): 0%
- DAP - diastolic arterial pressure (Anesthetized Dog; 5.0 mg/kg, TIME 0): 71 mmHg
- LVP % Change from respective Time 0 (Anesthetized Dog; 5.0 mg/kg, TIME 0): 0%
- MAP % Change from respective Time 0 (Anesthetized Dog; 5.0 mg/kg, TIME 0): 0%
- MAP - mean arterial pressure (Anesthetized Dog; 5.0 mg/kg, TIME 0): 95 mmHg
- SAP % Change from respective Time 0 (Anesthetized Dog; 5.0 mg/kg, TIME 0): 0%
- SAP - systolic arterial pressure (Anesthetized Dog; 5.0 mg/kg, TIME 0): 132 mmHg
- DAP % Change from respective Time 0 (Anesthetized Dog; 5.0 mg/kg, TIME 5): 0%
- DAP - diastolic arterial pressure (Anesthetized Dog; 5.0 mg/kg, TIME 5): 71 mmHg
- LVP % Change from respective Time 0 (Anesthetized Dog; 5.0 mg/kg, TIME 5): 5%
- MAP % Change from respective Time 0 (Anesthetized Dog; 5.0 mg/kg, TIME 5): 4%
- MAP - mean arterial pressure (Anesthetized Dog; 5.0 mg/kg, TIME 5): 99 mmHg
- SAP % Change from respective Time 0 (Anesthetized Dog; 5.0 mg/kg, TIME 5): 7%
- DAP % Change from respective Time 0 (Anesthetized Dog; 5.0 mg/kg, TIME 15): 39%
- DAP - diastolic arterial pressure (Anesthetized Dog; 5.0 mg/kg, TIME 15): 98 mmHg
- LVP % Change from respective Time 0 (Anesthetized Dog; 5.0 mg/kg, TIME 15): 28%
- MAP % Change from respective Time 0 (Anesthetized Dog; 5.0 mg/kg, TIME 15): 37%
- MAP - mean arterial pressure (Anesthetized Dog; 5.0 mg/kg, TIME 15): 130 mmHg
- SAP % Change from respective Time 0 (Anesthetized Dog; 5.0 mg/kg, TIME 15): 33%
- DAP % Change from respective Time 0 (Anesthetized Dog; 5.0 mg/kg, TIME 25): −3%
- DAP - diastolic arterial pressure (Anesthetized Dog; 5.0 mg/kg, TIME 25): 69 mmHg
- LVP % Change from respective Time 0 (Anesthetized Dog; 5.0 mg/kg, TIME 25): 11%
- LVP - left ventricular pressure (Anesthetized Dog; 5.0 mg/kg, TIME 25): 160 mmHg
- MAP % Change from respective Time 0 (Anesthetized Dog; 5.0 mg/kg, TIME 25): 1%
- MAP - mean arterial pressure (Anesthetized Dog; 5.0 mg/kg, TIME 25): 96 mmHg
- SAP % Change from respective Time 0 (Anesthetized Dog; 5.0 mg/kg, TIME 25): −5%
- DAP % Change from respective Time 0 (Anesthetized Dog; 5.0 mg/kg, TIME 30): −1%
- DAP - diastolic arterial pressure (Anesthetized Dog; 5.0 mg/kg, TIME 30): 70 mmHg
- LVP % Change from respective Time 0 (Anesthetized Dog; 5.0 mg/kg, TIME 30): 13%
- MAP % Change from respective Time 0 (Anesthetized Dog; 5.0 mg/kg, TIME 30): 4%
- MAP - mean arterial pressure (Anesthetized Dog; 5.0 mg/kg, TIME 30): 99 mmHg
- SAP % Change from respective Time 0 (Anesthetized Dog; 5.0 mg/kg, TIME 30): 0%
- SAP - systolic arterial pressure (Anesthetized Dog; 5.0 mg/kg, TIME 30): 132 mmHg
- Effect on mean blood pressure after the first (lowest) dose (Anesthetized Dog; dog, IV bolus, 0.202 mg/kg d-amphetamine, equimolar to 0.5 mg/kg L-lysine-d-amphetamine): very little change in mean BP
- Increase of mean blood pressure (Anesthetized Dog; dog, IV bolus, approximately 30 minutes after injection): 20-50%
